Patent publication US7507727B2, “Substituted quinobenzoxazine analogs and methods of using thereof” (Cylene Pharmaceuticals, Inc., priority 2003, dated 2009)
Like-named read-outs stand apart in the source and are kept apart here.

Key:
HeLa cells = assay: MTS cell proliferation and/or cytotoxicity assay; assay type: cell-based, Human; conditions: concentration at which 50% of antiproliferative cell response is seen, 3 days incubation, read-out: MTS Data Hella
Summary of the method: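 HeLa cells seeded at 4,500 cells/well, exposed to compounds from day 1 for 3 days at 37 °C, 5% CO2. Viability by MTS/PMS (20:1) with 4 h incubation, absorbance at 490 nm. Values are concentrations giving 50% antiproliferative response.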

[1] = target: c-Myc template DNA (c-myc quadruplex); assay: Quadruplex binding / stop assay (Taq polymerase arrest, capillary electrophoresis); conditions: read-out: Stop Data c-Myc μM; concentration at which 50% of the DNA was arrested (arrested:full-length 1:1)

Compound	IC50 (HeLa cells; Homo sapiens, HeLa, 72 h) [nM]	IC50 [1] [µM]	IC50 (HeLa cells) [nM]
CN(C)CCCCNC(=O)c1cn2c3c(c(N4CC[C@@H](NC(=O)CCNCCCn5ccnc5)C4)c(F)cc3c1=O)Oc1cc3c(cc1-2)oc1ccccc13 [compound 500]	5600	0.375	
CN(C)CCCCNc1c(F)cc2c(=O)c(C(=O)NCCC3CCCN3C)cn3c4cc5c(cc4oc1c23)c(=O)c1ccccc15 (centres unmarked) [compound 501]	4200	0.375	
O=C(NCCCN1CCOCC1)c1cn2c3cc4c(cc3oc3c(NCCN5CCCC5)c(F)cc(c1=O)c32)c(=O)c1ccccc14 [compound 502]	4000	0.375	
CN(C)/C=N/CCCCNC(=O)c1cn2c3c(c(N4CC[C@@H](N)C4)c(F)cc3c1=O)Oc1cc3ccccc3cc1-2 [compound 503]	4000	0.375	
O=C(CCN1CCCC1)N[C@@H]1CCN(c2c(F)cc3c(=O)c(C(=O)NCCN4CCOCC4)cn4c3c2Oc2cc3c(cc2-4)oc2ccccc23)C1 [compound 504]	3400	0.375	
CN1CCN(CC(=O)N[C@@H]2CCN(c3c(F)cc4c(=O)c(C(=O)NCCN5CCCC5)cn5c4c3Oc3cc4c(cc3-5)oc3ccccc34)C2)CC1 [compound 505]	3400	0.375	
O=C(CN1CCCC1)N[C@@H]1CCN(c2c(F)cc3c(=O)c(C(=O)NCCN4CCCC4)cn4c3c2Oc2cc3c(cc2-4)oc2ccccc23)C1 [compound 506]	3400	0.375	
CN(C)CCCCNC(=O)c1cn2c3c(c(N4CC[C@@H](NC(=O)CCN5CCCCC5)C4)c(F)cc3c1=O)Oc1cc3c(cc1-2)oc1ccccc13 [compound 507]	3300	0.375	
CN1CCN(CCCNC(=O)c2cn3c4c(c(N5CC[C@@H](NC(=O)CCN6CCCCC6)C5)c(F)cc4c2=O)Oc2cc4c(cc2-3)oc2ccccc24)CC1 [compound 508]	3200	0.375	
CN(C)CCCCNc1c(F)cc2c(=O)c(C(=O)NCCCn3ccnc3)cn3c2c1Oc1cc2c(cc1-3)oc1ccccc12 [compound 509]	3100	0.375	
CN(C)CCCCNC(=O)c1cn2c3c(c(N4CC[C@@H](NC(=O)CCN5CCCC5)C4)c(F)cc3c1=O)Oc1cc3c(cc1-2)oc1ccccc13 [compound 510]	3100	0.375	
N[C@H]1CCN(c2c(F)cc3c(=O)c(C(=O)NCCCN4CCOCC4)cn4c5cc6c(cc5oc2c34)c(=O)c2ccccc26)C1 [compound 511]	3100	0.375	
NC(N)=NCCCNC(=O)c1cn2c3c(c(N4CC[C@@H](N)C4)c(F)cc3c1=O)Oc1cc3ccccc3cc1-2 [compound 512]	3100	0.375	
CN1CCCC1CCNC(=O)c1cn2c3c(c(NCC4CC(C)(C)N(O)C4(C)C)c(F)cc3c1=O)Oc1cc3ccccc3cc1-2 (centres unmarked) [compound 513]	3100	0.375	
CN1CCCC1CCNC(=O)c1cn2c3cc4c(cc3oc3c(NCCC5CCCN5C)c(F)cc(c1=O)c32)c(=O)c1ccccc14 (centres unmarked) [compound 514]	2900	0.375	
CN(C)CCCCNc1c(F)cc2c(=O)c(C(=O)NCCN3CCCC3)cn3c4cc5c(cc4oc1c23)c(=O)c1ccccc15 [compound 515]	2500	0.375	
CN1CCCC1CCNC(=O)c1cn2c3c(c(N4CCC(c5cnccn5)C4)c(F)cc3c1=O)Oc1cc3ccccc3cc1-2 (centres unmarked) [compound 516]	2300	0.375	
CN1CCCC1CCNc1c(F)cc2c(=O)c(C(=O)NCCN3CCOCC3)cn3c4cc5c(cc4oc1c23)c(=O)c1ccccc15 (centres unmarked) [compound 517]	2200	0.375	
CN(C)CCCCNc1c(F)cc2c(=O)c(C(=O)NCCN3CCOCC3)cn3c4cc5c(cc4oc1c23)c(=O)c1ccccc15 [compound 518]	2200	0.375	
CN(C)CCCCNC(=O)c1cn2c3cc4c(cc3oc3c(NCCCN5CCOCC5)c(F)cc(c1=O)c32)c(=O)c1ccccc14 [compound 519]	2100	0.375	
CN1CCN(CCCNC(=O)c2cn3c4cc5c(cc4oc4c(N6CC[C@H](N)C6)c(F)cc(c2=O)c43)c(=O)c2ccccc25)CC1 [compound 520]	1900	0.375	
NC1CCN(c2c(F)cc3c(=O)c(C(=O)NCCCn4ccnc4)cn4c3c2Oc2cc3c(cc2-4)oc2ccccc23)C1 (centres unmarked) [compound 521]	1700	0.375	
CN(C)CCCCNc1c(F)cc2c(=O)c(C(=O)NCCCN3CCOCC3)cn3c4cc5c(cc4oc1c23)c(=O)c1ccccc15 [compound 522]	1700	0.375	
CN1CCCC1CCNc1c(F)cc2c(=O)c(C(=O)NCCCN3CCOCC3)cn3c4cc5c(cc4oc1c23)c(=O)c1ccccc15 (centres unmarked) [compound 523]	1600	0.375	
CN1CCN(CCCNC(=O)c2cn3c4cc5c(cc4oc4c(NCCN6CCCC6)c(F)cc(c2=O)c43)c(=O)c2ccccc25)CC1 [compound 524]	1500	0.375	
CN1CCCC1CCNC(=O)c1cn2c3c(c(N4CC[C@H](N)C4)c(N)cc3c1=O)Oc1cc3ccccc3cc1-2 (some centres unmarked) [compound 526]	900	0.375	

Compound	IC50 (HeLa cells; Homo sapiens, HeLa, 72 h) [nM]	IC50 [1] [µM]	IC50 (HeLa cells) [nM]
CN1CCCC1CCNc1c(F)cc2c(=O)c(C(=O)NCCN3CCCC3)cn3c4cc5c(cc4oc1c23)c(=O)c1ccccc15 (centres unmarked) [compound 527]	790	0.375	
NCCCCNC(=O)c1cn2c3c(c(N4CC[C@@H](N)C4)c(F)cc3c1=O)Oc1cc3ccccc3cc1-2 [compound 528]	750	0.375	
CN1CCCC1CCNC(=O)c1cn2c3c(c(N4CCC(N)C4)ccc3c1=O)Oc1cc3ccccc3cc1-2 (centres unmarked) [compound 529]	750	0.375	
NC1CCN(c2c(F)cc3c(=O)c(C(=O)NCCN4CCOCC4)cn4c3c2Oc2cc3c(cc2-4)oc2ccccc23)C1 (centres unmarked) [compound 530]	720	0.375	
CN(C)CC(C)(C)CNC(=O)c1cn2c3c(c(N4CCC(N)C4)c(F)cc3c1=O)Oc1cc3ccccc3cc1-2 (centres unmarked) [compound 531]	480	0.375	
CN(C)CCCCNC(=O)c1cn2c3c(c(N4CCC(N)C4)c(F)cc3c1=O)Oc1cc3c(cc1-2)Cc1ccccc1-3 (centres unmarked) [compound 532]	440	0.375	
CN1CCN(CCC(=O)N[C@@H]2CCN(c3c(F)cc4c(=O)c(C(=O)NCCN5CCCC5)cn5c4c3Oc3cc4c(cc3-5)oc3ccccc34)C2)CC1 [compound 533]	400	0.375	
CN1CCCC1CCNC(=O)c1cn2c3c(c(NCCCN(CCO)CCO)c(F)cc3c1=O)Oc1cc3ccccc3cc1-2 (centres unmarked) [compound 534]	400	0.375	
CN1CCCC1CCNC(=O)c1cn2c3c(c(N4CCC(CCCC5CCNCC5)CC4)c(F)cc3c1=O)Oc1cc3ccccc3cc1-2 (centres unmarked) [compound 535]	310	0.375	
CN1CCCC1CCNC(=O)c1cn2c3c(c(N[C@H]4CN5CCC4CC5)c(F)cc3c1=O)Oc1cc3ccccc3cc1-2 (some centres unmarked) [compound 536]	310	0.375	
CN1CCCC1CCNC(=O)c1cn2c3c(c(N4CCC(N)C4)c(F)cc3c1=O)Oc1cc3c(cc1-2)Cc1ccccc1-3 (centres unmarked) [compound 537]	290	0.375	
CN1CCN(CCCNC(=O)c2cn3c4c(c(N5CC[C@@H](N)C5)c(F)cc4c2=O)Oc2cc4ccccc4cc2-3)CC1 [compound 538]	280	0.375	
CC1(C)CC(NC(=O)c2cn3c4c(c(N5CCC(N)C5)c(F)cc4c2=O)Oc2cc4ccccc4cc2-3)CC(C)(C)N1 (centres unmarked) [compound 539]	280	0.375	
CN1CCCC1CCNC(=O)c1cn2c3c(c(N4CCC(N)C4)c(F)cc3c1=O)Oc1cc3ccccc3cc1-2 (centres unmarked) [compound 540]		0.375	270
CC(C)NCCCNC(=O)c1cn2c3c(c(N4CCC(N)C4)c(F)cc3c1=O)Oc1cc3ccccc3cc1-2 (centres unmarked) [compound 541]	270	0.375	
CCN(CC)CCCC(C)NC(=O)c1cn2c3c(c(N4CCC(N)C4)c(F)cc3c1=O)Oc1cc3ccccc3cc1-2 (centres unmarked) [compound 542]	230	0.375	
CCN(C)CCCC(C)NC(=O)c1cn2c3c(c(NCCN4CCCC4)ccc3c1=O)Oc1cc3ccccc3cc1-2 (centres unmarked) [compound 543]	200	0.375	
O=C(NCCN1CCCC1)c1cn2c3c(c(N4CC5CCCNC5C4)ccc3c1=O)Oc1cc3ccccc3cc1-2 (centres unmarked) [compound 544]	200	0.375	
O=C(NCCN1CCCC1)c1cn2c3c(c(N4CC5CCCNC5C4)c(F)cc3c1=O)Oc1cc3ccccc3cc1-2 (centres unmarked) [compound 545]	150	0.375	
CN1CCCC1CCNC(=O)c1cn2c3c(c(N4CC5CCCNC5C4)c(F)cc3c1=O)Oc1cc3ccccc3cc1-2 (centres unmarked) [compound 546]	100	0.375	
O=C(NCCCN1CCOCC1)c1cn2c3c(c(N4CC5CCCNC5C4)c(F)cc3c1=O)Oc1cc3ccccc3cc1-2 (centres unmarked) [compound 547]	100	0.375	
CN(C)CCCCNC(=O)c1cn2c3c(c(N4CC5CCCNC5C4)c(F)cc3c1=O)Oc1cc3ccccc3cc1-2 (centres unmarked) [compound 548]	100	0.375	
O=C(NCCC1CCCN1)c1cn2c3c(c(NCCCN4CCOCC4)c(F)cc3c1=O)Oc1cc3c(cc1-2)oc1ccccc13 (centres unmarked) [compound 562]	850	0.32	
N[C@@H]1CCN(c2c(F)cc3c(=O)c(C(=O)NCCC4CCCN4)cn4c3c2Oc2cc3c(cc2-4)oc2ccccc23)C1 (some centres unmarked) [compound 563]	310	0.25	
CN1CCCC1CCNC(=O)c1cn2c3c(c(N4CC[C@@H](N)C4)c(F)cc3c1=O)Oc1cc3ccccc3cc1-2 (some centres unmarked) [compound 564]	290	0.25	
N[C@@H]1CCN(c2c(F)cc3c(=O)c(C(=O)NCCN4CCCC4)cn4c3c2Oc2cc3ccccc3cc2-4)C1 [compound 565]	200	0.25	
